Literature values in patent US20260191871A1, “USE OF ANTIVIRAL AGENTS, COMPOSITION OF MATTER, COMBINATION PREPARATIONS/AGENTS TO TREAT CHRONIC DISEASES ASSOCIATED WITH EPSTEIN-BARR VIRUS AND OTHER HUMAN HERPES VIRUSES” (EPIPHANY BIOSCIENCES, priority 2022, published 2026).

Experiments:
[1] = tested on: human varicella zoster virus (VZV)
[2] = tested on: human herpesvirus-6 (HHV-6)
[3] = compared with the other polymorphic forms (O'Neill et al. '456)
zoster = conditions: suspension at 250, 500 and 750 mg twice daily for 7 days, zoster patients, acyclovir as control
[4] = human, multiple dosing, total daily doses of up to 6.0 g

For `Nc1nc2c(ncn2C[C@H](CO)CCO)c(=O)[nH]1` [Formula H2G], the “activity against HSV-2” value (HSV-2) is given as “potent activity”, the “activity against Epstein-Barr virus (EBV)” value (Epstein-Barr virus (EBV)) is given as “potent activity” and the “activity against HSV-1” value (HSV-1) is given as “potent activity”. The “activity against human varicella zoster virus (VZV)” value [1] was “potent activity” and the “activity against human herpesvirus-6 (HHV-6)” value [2] was “potent activity”.

In the case of `CCCCCCCCCCCCCCCCCC(=O)OC[C@H](CCOC(=O)[C@@H](N)C(C)C)Cn1cnc2c(=O)[nH]c(N)nc21` [Polymorph A], the “thermodynamic stability among polymorphs of valomaciclovir stearate” value [3] is given as “thermodynamically the most stable polymorph”.

In the case of `CCCCCCCCCCCCCCCCCC(=O)OC[C@H](CCOC(=O)[C@@H](N)C(C)C)Cn1cnc2c(=O)nc(N)[nH]c21` [valomaciclovir stearate, [(2R)-4-[(2S)-2-amino-3-methylbutanoyl]oxy-2-[(2-amino-6-oxo-3H-purin-9-yl)methyl]butyl]octadecanoate], the zoster lesion healing (zoster) is given as “proof-of-concept for zoster lesion healing”, the “replication of EBV” value (EBV) is given as “suppresses replication of EBV” and the safety and tolerability [4] is given as “safe and well tolerated”. The “impact on CMV” value (CMV) was “does not impact CMV”.
